Active and inactive are the calls of the source. The calls are words filed in the database; no cut-off is given here.
Tests used:
[1] = target: T1, Albumin (Bos taurus, UniProt P02769); assay: Binding affinity to bovine serum albumin assessed as appearance of new fluorescence band at 510 nm at 0-12 uM by fluorescence emission spectrum analysis; type: ADME, cell-free; settings: cattle
[2] = tested on: SN12C; assay: Antitumor activity against human SN12C cells assessed as cell growth inhibition at 10 uM incubated for 48 hrs by sulforhodamine B assay; type: functional; settings: read-out: GI
[3] = tested on: SR; assay: Antitumor activity against human SR cells assessed as cell growth inhibition at 10 uM incubated for 48 hrs by sulforhodamine B assay; type: functional; settings: read-out: GI
[4] = tested on: Calf thymus DNA; assay: Binding affinity to calf thymus DNA assessed as binding constant by fluorescence emission spectroscopic analysis; type: nucleic-acid assay; settings: Bos taurus
[5] = tested on: HEK293; assay: Cytotoxicity against human HEK293 assessed as reduction in cell viability at 10 uM after 48 hrs by MTT assay; type: cell-based; settings: hek293, 48 h
[6] = tested on: OVCAR-3; assay: Antitumor activity against human OVCAR-3 cells assessed as cell growth inhibition at 10 uM incubated for 48 hrs by sulforhodamine B assay; type: functional; settings: read-out: GI
[7] = tested on: OVCAR-8; assay: Antitumor activity against human OVCAR-8 cells assessed as cell growth inhibition at 10 uM incubated for 48 hrs by sulforhodamine B assay; type: functional; settings: read-out: GI
[8] = tested on: A549; assay: Cytotoxicity against human A549/ATCC assessed as reduction in cell viability at 0.1 uM after 48 hrs by MTT assay; type: functional
[9] = tested on: Calf thymus DNA; assay: Binding affinity to calf thymus DNA assessed as binding constant by UV-Vis absorption spectrophotometric method based Benesi-Hildebrand equation analysis; type: nucleic-acid assay; settings: Bos taurus
[10] = tested on: SK-MEL-28; assay: Antitumor activity against human SK-MEL-28 cells assessed as cell growth inhibition at 10 uM incubated for 48 hrs by sulforhodamine B assay; type: functional; settings: read-out: GI
[11] = tested on: Calf thymus DNA; assay: Binding affinity to calf thymus DNA assessed as quenching constant by fluorescence emission spectroscopic analysis; type: nucleic-acid assay; settings: Bos taurus
[12] = tested on: HCC 2998; assay: Antitumor activity against human HCC2998 cells assessed as cell growth inhibition at 10 uM incubated for 48 hrs by sulforhodamine B assay; type: functional; settings: read-out: GI
[13] = tested on: HEK293; assay: Cytotoxicity against human HEK293 assessed as reduction in cell viability at 0.1 uM after 48 hrs by MTT assay; type: cell-based; settings: hek293, 48 h
[14] = tested on: A549; assay: Cytotoxicity against human A549/ATCC assessed as reduction in cell viability at 100 uM after 48 hrs by MTT assay; type: functional
[15] = tested on: IGROV-1; assay: Antitumor activity against human IGROV1 cells assessed as cell growth inhibition at 10 uM incubated for 48 hrs by sulforhodamine B assay; type: functional; settings: read-out: GI
[16] = target: T1, Albumin; assay: Binding affinity to bovine serum albumin assessed as binding constant at 318K by fluorescence emission spectrum analysis; type: ADME, cell-free; settings: cattle
[17] = tested on: Calf thymus DNA; assay: Binding affinity to calf thymus DNA assessed as hypochromic effect by measuring decrease in intensity of absorption band at 398 nm at 20 uM by UV-Vis absorption spectrophotometric method; settings: Bos taurus
[18] = tested on: HT-29; assay: Antitumor activity against human HT-29 cells assessed as cell growth inhibition at 10 uM incubated for 48 hrs by sulforhodamine B assay; type: functional; settings: read-out: GI
[19] = tested on: Calf thymus DNA; assay: Binding affinity to calf thymus DNA (unknown origin) assessed as binding constant by ethidium bromide competitive displacement assay; type: nucleic-acid assay; settings: Bos taurus
[20] = tested on: Calf thymus DNA; assay: Binding affinity to calf thymus DNA assessed as bimolecular quenching constant by ethidium bromide competitive displacement assay; type: nucleic-acid assay; settings: Bos taurus
[21] = tested on: UO-31; assay: Antitumor activity against human UO-31 cells assessed as cell growth inhibition at 10 uM incubated for 48 hrs by sulforhodamine B assay; type: functional; settings: read-out: GI
[22] = target: T2, Albumin (Homo sapiens, UniProt P02768); assay: Binding affinity to human serum albumin assessed as increase in peak absorption intensity at 280 nm at 0-7 uM by UV-Vis absorption spectroscopy; type: ADME, cell-free; settings: 0.28 µM
T2 sequence (P02768 whole entry): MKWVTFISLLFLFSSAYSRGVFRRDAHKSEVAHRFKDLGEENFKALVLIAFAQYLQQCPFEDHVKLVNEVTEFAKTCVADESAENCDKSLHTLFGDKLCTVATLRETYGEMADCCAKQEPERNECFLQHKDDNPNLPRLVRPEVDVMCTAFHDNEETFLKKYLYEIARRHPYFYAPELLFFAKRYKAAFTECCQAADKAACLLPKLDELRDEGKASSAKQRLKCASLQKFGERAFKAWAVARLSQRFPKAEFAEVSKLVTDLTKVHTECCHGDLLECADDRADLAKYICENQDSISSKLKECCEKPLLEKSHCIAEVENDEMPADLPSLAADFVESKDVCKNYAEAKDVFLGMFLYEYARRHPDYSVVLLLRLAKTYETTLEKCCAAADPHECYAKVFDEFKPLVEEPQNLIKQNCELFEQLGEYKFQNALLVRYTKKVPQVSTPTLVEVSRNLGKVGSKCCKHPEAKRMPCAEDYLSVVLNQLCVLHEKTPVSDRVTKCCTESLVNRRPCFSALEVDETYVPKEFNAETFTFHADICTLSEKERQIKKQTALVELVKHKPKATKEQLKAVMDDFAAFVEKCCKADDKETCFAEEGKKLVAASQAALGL

[23] = target: T1, Albumin; assay: Binding affinity to bovine serum albumin assessed as spontaneous interaction by measuring change in gibbs free energy at 318K by thermodynamic based analysis; type: ADME, cell-free; settings: cattle
[24] = tested on: SF-295; assay: Antitumor activity against human SF295 cells assessed as cell growth inhibition at 10 uM incubated for 48 hrs by sulforhodamine B assay; type: functional; settings: read-out: GI
[25] = tested on: Calf thymus DNA; assay: Binding affinity to calf thymus DNA assessed as increase in fluorescence emission intensity at 468 nm at 20 uM by fluorescence emission spectroscopic analysis; type: nucleic-acid assay; settings: Bos taurus
[26] = target: T2, Albumin; assay: Binding affinity to human serum albumin assessed as binding constant by fluorescence emission spectroscopy; type: ADME, cell-free
[27] = target: T2, Albumin; assay: Binding affinity to human serum albumin assessed as Stern-Volmer quenching constant by fluorescence emission spectroscopy; type: ADME, cell-free
[28] = tested on: Calf thymus DNA; assay: Binding affinity to calf thymus DNA assessed as DNA intercalation by measuring decrease in intensity of CD band at 250 nm at 1 uM by CD spectroscopy; type: nucleic-acid assay; settings: Bos taurus
[29] = target: DNA; assay: Binding affinity to human DNA in blood assessed as binding constant by fluorescence emission spectrum analysis; type: tissue-based
[30] = tested on: CCRF-CEM; assay: Antitumor activity against human CCRF-CEM cells assessed as cell growth inhibition at 10 uM incubated for 48 hrs by sulforhodamine B assay; type: functional; settings: read-out: GI
[31] = tested on: Calf thymus DNA; assay: Binding affinity to calf thymus DNA assessed as Stern-Volmer quenching constant by ethidium bromide competitive displacement assay; type: nucleic-acid assay; settings: Bos taurus
[32] = tested on: ACHN; assay: Antitumor activity against human ACHN cells assessed as cell growth inhibition at 10 uM incubated for 48 hrs by sulforhodamine B assay; type: functional; settings: read-out: GI
[33] = target: T1, Albumin; assay: Binding affinity to bovine serum albumin assessed as binding constant at 298K by fluorescence emission spectrum analysis; type: ADME, cell-free; settings: cattle
[34] = tested on: UACC-62; assay: Antitumor activity against human UACC-62 cells assessed as cell growth inhibition at 10 uM incubated for 48 hrs by sulforhodamine B assay; type: functional; settings: read-out: GI
[35] = tested on: OVCAR-4; assay: Antitumor activity against human OVCAR-4 cells assessed as cell growth inhibition at 10 uM incubated for 48 hrs by sulforhodamine B assay; type: functional; settings: read-out: GI
[36] = tested on: MDA-MB-435; assay: Antitumor activity against human MDA-MB-435 cells assessed as cell growth inhibition at 10 uM incubated for 48 hrs by sulforhodamine B assay; type: functional; settings: read-out: GI
[37] = target: T1, Albumin; assay: Binding affinity to bovine serum albumin assessed as Stern-Volmer quenching constant at 318K by fluorescence emission spectrum analysis; type: ADME, cell-free; settings: cattle
[38] = tested on: NCI-H226; assay: Antitumor activity against human NCI-H226 assessed as cell growth inhibition at 10 uM incubated for 48 hrs by sulforhodamine B assay; type: functional; settings: read-out: GI
[39] = tested on: Calf thymus DNA; assay: Binding affinity to minor groove of calf thymus DNA assessed as ICD band intensity between 350 and 400 nm at 1 uM by CD spectroscopy; type: nucleic-acid assay; settings: Bos taurus
[40] = tested on: DNA; assay: Binding affinity to human DNA in blood assessed as Stern-Volmer quenching constant by fluorescence emission spectrum analysis; type: tissue-based
[41] = target: DNA; assay: Binding affinity to human DNA in blood assessed as DNA intercalation by measuring binding constant by UV-Vis spectral titration analysis; type: tissue-based
[42] = tested on: MCF7; assay: Antitumor activity against human MCF7 cells assessed as cell growth inhibition at 10 uM incubated for 48 hrs by sulforhodamine B assay; type: functional; settings: read-out: GI
[43] = target: T1, Albumin; assay: Binding affinity to bovine serum albumin assessed as spontaneous interaction by measuring change in gibbs free energy at 308K by thermodynamic based analysis; type: ADME, cell-free; settings: cattle
[44] = tested on: HCT-116; assay: Antitumor activity against human HCT116 cells assessed as cell growth inhibition at 10 uM incubated for 48 hrs by sulforhodamine B assay; type: functional; settings: read-out: GI
[45] = tested on: BT-549; assay: Antitumor activity against human BT-549 cells assessed as cell growth inhibition at 10 uM incubated for 48 hrs by sulforhodamine B assay; type: functional; settings: read-out: GI

T1 sequence (P02769 whole entry): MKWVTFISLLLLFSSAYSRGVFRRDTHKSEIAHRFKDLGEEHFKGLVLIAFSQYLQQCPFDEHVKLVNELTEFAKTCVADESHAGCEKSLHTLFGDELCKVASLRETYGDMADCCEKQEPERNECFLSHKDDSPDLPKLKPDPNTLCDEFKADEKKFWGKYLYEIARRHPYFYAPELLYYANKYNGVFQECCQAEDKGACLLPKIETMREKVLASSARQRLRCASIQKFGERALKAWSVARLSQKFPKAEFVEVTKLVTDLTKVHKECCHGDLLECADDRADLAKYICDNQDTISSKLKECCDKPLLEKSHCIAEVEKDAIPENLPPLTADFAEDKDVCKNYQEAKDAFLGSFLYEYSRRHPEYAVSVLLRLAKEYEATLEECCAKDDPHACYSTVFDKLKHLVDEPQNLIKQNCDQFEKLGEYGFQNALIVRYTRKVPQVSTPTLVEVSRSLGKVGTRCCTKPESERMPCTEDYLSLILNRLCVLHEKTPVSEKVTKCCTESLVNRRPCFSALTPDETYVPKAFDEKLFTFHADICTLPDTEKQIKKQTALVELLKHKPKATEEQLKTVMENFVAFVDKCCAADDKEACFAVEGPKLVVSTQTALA

For `O=C1NC(=O)/C(=C/c2ccc(-c3nc4c5ccccc5c5ccccc5c4[nH]3)cc2)S1`, the Activity [1] was “Active”, the inhibition of growth at 10 µM [2] was less than 10% and the inhibition of growth at 10 µM [3] was 79.2%. For the same molecule, the Kb [4] was 1.95 10^5/M, the Activity [5] was 9% and the inhibition of growth at 10 µM [6] was 21.3%. For the same molecule, the inhibition of growth at 10 µM [7] was 21.7%, the Activity [8] was 59% and the Kb [9] was 2.95 10^4/M. For the same molecule, the inhibition of growth at 10 µM [10] was 19.1%, the Kq [11] was 1.88 10^11/M/s and the inhibition of growth at 10 µM [12] was less than 10%. It also gave an Activity [13] of 5%, an Activity [14] of 90% and an inhibition of growth at 10 µM [15] of less than 10%. The Kb [16] was 2.97 10^6/M, the Activity [17] was “Active” and the inhibition of growth at 10 µM [18] was 24%. For the same molecule, the Kb [19] was 1 10^5/M, the Kq [20] was 6.53 10^12/M/s and the inhibition of growth at 10 µM [21] was 25.5%. The Activity [22] was “Active”, the deltaG [23] was -9.41 kcal/mol and the inhibition of growth at 10 µM [24] was 16.3%. For the same molecule, the Activity [25] was “Active”, the Kb [26] was 7.29 10^6/M and the KSV [27] was 3.01 10^6/M. The Activity [28] was “Active”, the Kb [29] was 7.09 10^5/M and the inhibition of growth at 10 µM [30] was 65.2%. The KSV [31] was 6.53 10^4/M, the inhibition of growth at 10 µM [32] was 33.4% and the Kb [33] was 4.06 10^6/M. For the same molecule, the inhibition of growth at 10 µM [34] was 30.3%, the inhibition of growth at 10 µM [35] was less than 10% and the inhibition of growth at 10 µM [36] was 67.4%. The KSV [37] was 3.51 10^5/M, the inhibition of growth at 10 µM [38] was less than 10% and the Activity [39] was “inactive”. For the same molecule, the KSV [40] was 3.46 10^3/M, the Kb [41] was 5.24 10^4/M and the inhibition of growth at 10 µM [42] was 46.1%. The deltaG [43] was -9.21 kcal/mol, the inhibition of growth at 10 µM [44] was 65.5% and the inhibition of growth at 10 µM [45] was 63.7%.

Reference: ChEMBL document CHEMBL4665624, “Synthesis of 5-(4-(1H-phenanthro[9,10-d]imidazol-2-yl)benzylidene)thiazolidine-2,4-dione as promising DNA and serum albumin-binding agents and evaluation of antitumor activity” (Eur J Med Chem, 2019)
